Experimental data reported in ChEMBL document CHEMBL5465560, “Selectivity Literature for EUbOPEN Chemogenomic Library” (2024).

Legend:
[1] = target: Phosphatidylinositol 4-kinase alpha (Homo sapiens, UniProt P42356); test: Selectivity interaction (Kinase panel (KiNativ target engagement assay in Jurkat cells)) EUB0001635a PI4KA; assay type: cell-based; settings: Selectivity number of off-targets 0.0, Selectivity number of targets 233.0, Source Knowledge https://www.sciencedirect.com/science/article/pii/S2451945619300674?via%3Dihub, at 1 µM
[2] = target: Tyrosine-protein kinase BTK (Homo sapiens, UniProt Q06187); settings: at 10 µM
[3] = target: Hepatocyte growth factor receptor (Homo sapiens, UniProt P08581); settings: at 10 µM
[4] = target: T1, Serine/threonine-protein kinase D2 (Homo sapiens) (UniProt Q9BZL6); settings: at 10 µM
T1 sequence (whole entry): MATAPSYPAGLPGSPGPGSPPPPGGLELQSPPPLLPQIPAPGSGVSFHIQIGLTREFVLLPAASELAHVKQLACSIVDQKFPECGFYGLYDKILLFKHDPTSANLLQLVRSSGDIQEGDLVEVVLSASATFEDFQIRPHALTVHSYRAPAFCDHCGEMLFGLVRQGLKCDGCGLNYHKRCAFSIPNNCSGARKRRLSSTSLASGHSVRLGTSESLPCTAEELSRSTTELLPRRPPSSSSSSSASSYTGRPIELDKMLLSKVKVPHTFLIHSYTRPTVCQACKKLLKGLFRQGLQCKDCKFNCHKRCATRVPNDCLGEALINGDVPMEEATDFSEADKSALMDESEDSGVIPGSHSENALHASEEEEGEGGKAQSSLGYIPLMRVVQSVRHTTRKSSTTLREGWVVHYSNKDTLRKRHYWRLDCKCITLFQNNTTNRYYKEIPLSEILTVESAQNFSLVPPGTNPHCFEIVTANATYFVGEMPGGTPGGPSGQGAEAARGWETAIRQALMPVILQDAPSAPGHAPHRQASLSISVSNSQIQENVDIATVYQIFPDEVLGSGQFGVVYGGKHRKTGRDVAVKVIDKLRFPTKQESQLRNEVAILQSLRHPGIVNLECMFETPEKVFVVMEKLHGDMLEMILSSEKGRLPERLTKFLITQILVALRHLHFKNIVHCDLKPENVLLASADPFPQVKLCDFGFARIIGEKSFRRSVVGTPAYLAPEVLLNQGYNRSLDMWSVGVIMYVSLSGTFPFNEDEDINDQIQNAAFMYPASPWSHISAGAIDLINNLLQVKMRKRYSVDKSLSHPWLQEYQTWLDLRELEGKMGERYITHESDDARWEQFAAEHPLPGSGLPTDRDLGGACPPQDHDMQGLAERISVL

[5] = target: Myosin light chain kinase, smooth muscle (Homo sapiens, UniProt Q15746); test: Selectivity interaction (Kinase panel (Invitrogen, enzymatic assay)) EUB0000162b MYLK
[6] = target: Activated CDC42 kinase 1 (Homo sapiens, UniProt Q07912); test: Selectivity interaction (KinomeScan (DiscoverX)) EUB0001049a TNK2; settings: at 1 µM
[7] = target: Serine/threonine-protein kinase 32C (Homo sapiens) (UniProt Q86UX6); test: Selectivity interaction (KinomeScan (DiscoverX)) EUB0001049a STK32C; settings: at 1 µM
[8] = target: Serine/threonine-protein kinase Chk1 (Homo sapiens, UniProt O14757)
[9] = target: T2, Protein kinase C iota type (Homo sapiens) (UniProt P41743); test: Selectivity interaction (ProQinase) EUB0000171b PRKCI
T2 sequence (whole entry): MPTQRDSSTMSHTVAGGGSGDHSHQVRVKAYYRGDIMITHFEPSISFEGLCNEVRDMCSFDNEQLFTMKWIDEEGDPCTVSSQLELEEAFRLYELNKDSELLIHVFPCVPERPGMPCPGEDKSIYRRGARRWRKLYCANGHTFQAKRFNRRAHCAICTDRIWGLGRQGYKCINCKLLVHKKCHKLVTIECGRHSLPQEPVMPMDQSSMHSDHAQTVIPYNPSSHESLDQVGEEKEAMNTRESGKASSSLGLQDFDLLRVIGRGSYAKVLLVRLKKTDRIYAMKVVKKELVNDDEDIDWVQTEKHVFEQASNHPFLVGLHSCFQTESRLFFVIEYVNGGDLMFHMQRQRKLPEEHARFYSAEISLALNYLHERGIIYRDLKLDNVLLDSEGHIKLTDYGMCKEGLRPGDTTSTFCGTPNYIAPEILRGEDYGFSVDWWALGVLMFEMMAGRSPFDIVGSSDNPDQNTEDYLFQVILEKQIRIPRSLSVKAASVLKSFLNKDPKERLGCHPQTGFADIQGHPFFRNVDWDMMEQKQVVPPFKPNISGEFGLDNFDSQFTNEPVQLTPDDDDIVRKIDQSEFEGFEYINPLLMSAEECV

[10] = target: Serine/threonine-protein kinase PLK2 (Homo sapiens, UniProt Q9NYY3); test: Selectivity interaction (ProQinase) EUB0000171b PLK2
[11] = target: T3, Serine/threonine-protein kinase 17A (Homo sapiens) (UniProt Q9UEE5); test: Selectivity interaction (KinomeScan (DiscoverX)) EUB0000618a STK17A; settings: at 10 µM
T3 sequence (whole entry): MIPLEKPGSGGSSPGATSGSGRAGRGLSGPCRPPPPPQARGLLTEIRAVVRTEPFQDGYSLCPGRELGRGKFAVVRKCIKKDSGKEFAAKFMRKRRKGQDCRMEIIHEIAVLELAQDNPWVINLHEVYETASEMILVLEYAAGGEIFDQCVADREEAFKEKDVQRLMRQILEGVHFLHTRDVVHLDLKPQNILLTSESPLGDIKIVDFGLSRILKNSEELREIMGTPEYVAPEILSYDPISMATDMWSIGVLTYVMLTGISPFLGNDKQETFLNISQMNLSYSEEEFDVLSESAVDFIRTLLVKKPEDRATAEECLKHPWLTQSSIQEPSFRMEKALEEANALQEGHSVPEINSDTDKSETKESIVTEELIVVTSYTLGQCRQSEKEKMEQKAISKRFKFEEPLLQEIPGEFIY

[12] = target: Dual specificity protein kinase CLK3 (Homo sapiens, UniProt P49761); test: Selectivity interaction (ActivX KiNativ screen (kinase selectivity in THP-1 cell lysates)) EUB0000639a CLK3; assay type: subcellular; settings: lysate
[13] = target: Dual specificity tyrosine-phosphorylation-regulated kinase 1A (Homo sapiens, UniProt Q13627); test: Selectivity interaction (Kinase panel (Invitrogen)) EUB0000639a DYRK1A; settings: at 200 nM
[14] = target: Tyrosine-protein kinase FRK (Homo sapiens) (UniProt P42685); test: Selectivity interaction (Kinase panel (Invitrogen)) EUB0000639a FRK; settings: at 200 nM

Chain of Dual specificity protein kinase CLK3 (P49761 whole entry, looked up): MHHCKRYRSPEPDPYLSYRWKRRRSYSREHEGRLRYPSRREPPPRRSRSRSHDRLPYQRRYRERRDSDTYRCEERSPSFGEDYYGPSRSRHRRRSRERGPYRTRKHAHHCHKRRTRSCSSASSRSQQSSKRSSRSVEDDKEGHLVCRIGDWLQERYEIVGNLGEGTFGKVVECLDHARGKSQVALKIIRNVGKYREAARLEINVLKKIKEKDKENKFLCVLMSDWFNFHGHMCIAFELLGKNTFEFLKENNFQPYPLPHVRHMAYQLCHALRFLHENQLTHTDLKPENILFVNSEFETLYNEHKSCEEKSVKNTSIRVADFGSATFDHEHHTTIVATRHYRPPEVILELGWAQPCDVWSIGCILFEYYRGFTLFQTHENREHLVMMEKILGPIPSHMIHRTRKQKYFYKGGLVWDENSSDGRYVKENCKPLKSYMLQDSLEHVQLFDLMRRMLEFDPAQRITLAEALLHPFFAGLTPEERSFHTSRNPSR
Chain of Serine/threonine-protein kinase PLK2 (Q9NYY3 whole entry, looked up): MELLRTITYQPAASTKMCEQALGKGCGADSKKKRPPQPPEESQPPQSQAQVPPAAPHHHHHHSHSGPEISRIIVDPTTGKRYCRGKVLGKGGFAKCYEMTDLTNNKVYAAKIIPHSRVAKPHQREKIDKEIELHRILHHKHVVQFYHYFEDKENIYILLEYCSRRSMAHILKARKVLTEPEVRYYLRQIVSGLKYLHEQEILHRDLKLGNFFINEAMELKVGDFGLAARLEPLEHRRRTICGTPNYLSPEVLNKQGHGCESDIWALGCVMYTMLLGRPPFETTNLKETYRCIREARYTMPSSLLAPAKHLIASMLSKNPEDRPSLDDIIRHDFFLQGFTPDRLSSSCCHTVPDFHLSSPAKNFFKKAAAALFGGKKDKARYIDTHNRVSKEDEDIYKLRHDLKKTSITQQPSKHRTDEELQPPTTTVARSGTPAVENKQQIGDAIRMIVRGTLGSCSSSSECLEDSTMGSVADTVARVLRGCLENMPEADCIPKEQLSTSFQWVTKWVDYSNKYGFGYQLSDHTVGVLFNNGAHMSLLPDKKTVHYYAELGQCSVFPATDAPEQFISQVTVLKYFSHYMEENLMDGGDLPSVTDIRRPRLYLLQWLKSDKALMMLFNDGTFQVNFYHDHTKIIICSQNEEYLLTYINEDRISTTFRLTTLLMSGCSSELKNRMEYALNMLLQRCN
Chain of Myosin light chain kinase, smooth muscle (Q15746 whole entry): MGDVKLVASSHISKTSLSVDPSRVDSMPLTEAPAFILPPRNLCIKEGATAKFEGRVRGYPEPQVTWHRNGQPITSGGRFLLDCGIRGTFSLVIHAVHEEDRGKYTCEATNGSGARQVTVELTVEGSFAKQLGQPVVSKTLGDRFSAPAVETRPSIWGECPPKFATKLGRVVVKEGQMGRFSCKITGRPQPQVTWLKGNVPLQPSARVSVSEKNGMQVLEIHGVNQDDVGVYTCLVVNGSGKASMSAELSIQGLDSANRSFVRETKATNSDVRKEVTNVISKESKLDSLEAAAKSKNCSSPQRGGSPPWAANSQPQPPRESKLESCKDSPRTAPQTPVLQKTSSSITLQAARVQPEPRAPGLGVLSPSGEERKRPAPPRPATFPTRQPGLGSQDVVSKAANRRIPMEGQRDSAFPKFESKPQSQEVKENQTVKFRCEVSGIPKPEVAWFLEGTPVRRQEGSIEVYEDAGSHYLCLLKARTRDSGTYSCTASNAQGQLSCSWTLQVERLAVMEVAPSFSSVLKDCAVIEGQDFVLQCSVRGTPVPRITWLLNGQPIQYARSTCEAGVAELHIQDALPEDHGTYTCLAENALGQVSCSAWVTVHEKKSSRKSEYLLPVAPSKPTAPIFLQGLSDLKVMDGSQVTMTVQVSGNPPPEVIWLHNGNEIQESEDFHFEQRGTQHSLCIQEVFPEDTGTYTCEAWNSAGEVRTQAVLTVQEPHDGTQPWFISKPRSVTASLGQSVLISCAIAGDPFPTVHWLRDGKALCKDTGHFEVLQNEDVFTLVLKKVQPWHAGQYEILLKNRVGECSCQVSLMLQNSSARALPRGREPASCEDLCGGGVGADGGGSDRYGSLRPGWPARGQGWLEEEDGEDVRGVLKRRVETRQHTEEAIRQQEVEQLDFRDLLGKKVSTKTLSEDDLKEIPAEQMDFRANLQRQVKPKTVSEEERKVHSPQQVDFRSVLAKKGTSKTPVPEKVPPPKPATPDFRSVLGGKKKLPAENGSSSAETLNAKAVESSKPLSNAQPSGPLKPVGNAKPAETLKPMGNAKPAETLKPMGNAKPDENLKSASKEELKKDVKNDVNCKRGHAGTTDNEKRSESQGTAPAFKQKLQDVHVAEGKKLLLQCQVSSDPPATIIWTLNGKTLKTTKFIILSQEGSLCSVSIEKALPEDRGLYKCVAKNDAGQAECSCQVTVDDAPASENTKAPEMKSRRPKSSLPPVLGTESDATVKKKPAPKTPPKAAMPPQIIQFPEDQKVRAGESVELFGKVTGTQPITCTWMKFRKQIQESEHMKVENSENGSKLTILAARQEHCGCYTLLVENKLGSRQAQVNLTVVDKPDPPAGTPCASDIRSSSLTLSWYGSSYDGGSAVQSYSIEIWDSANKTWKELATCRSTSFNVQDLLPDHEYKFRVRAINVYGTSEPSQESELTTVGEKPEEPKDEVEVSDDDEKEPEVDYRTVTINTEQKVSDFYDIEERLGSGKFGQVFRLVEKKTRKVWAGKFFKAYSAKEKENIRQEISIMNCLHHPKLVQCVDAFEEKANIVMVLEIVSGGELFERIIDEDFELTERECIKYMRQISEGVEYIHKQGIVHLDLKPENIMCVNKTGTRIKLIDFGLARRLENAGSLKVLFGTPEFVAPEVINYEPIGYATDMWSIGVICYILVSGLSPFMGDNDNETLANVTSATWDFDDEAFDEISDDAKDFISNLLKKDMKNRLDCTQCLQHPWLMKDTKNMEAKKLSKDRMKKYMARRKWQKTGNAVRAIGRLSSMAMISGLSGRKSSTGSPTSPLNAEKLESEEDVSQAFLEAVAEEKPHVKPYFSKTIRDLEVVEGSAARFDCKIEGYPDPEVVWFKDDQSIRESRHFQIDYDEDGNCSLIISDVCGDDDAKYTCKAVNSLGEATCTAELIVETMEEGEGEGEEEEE
Chain of Serine/threonine-protein kinase Chk1 (O14757 whole entry): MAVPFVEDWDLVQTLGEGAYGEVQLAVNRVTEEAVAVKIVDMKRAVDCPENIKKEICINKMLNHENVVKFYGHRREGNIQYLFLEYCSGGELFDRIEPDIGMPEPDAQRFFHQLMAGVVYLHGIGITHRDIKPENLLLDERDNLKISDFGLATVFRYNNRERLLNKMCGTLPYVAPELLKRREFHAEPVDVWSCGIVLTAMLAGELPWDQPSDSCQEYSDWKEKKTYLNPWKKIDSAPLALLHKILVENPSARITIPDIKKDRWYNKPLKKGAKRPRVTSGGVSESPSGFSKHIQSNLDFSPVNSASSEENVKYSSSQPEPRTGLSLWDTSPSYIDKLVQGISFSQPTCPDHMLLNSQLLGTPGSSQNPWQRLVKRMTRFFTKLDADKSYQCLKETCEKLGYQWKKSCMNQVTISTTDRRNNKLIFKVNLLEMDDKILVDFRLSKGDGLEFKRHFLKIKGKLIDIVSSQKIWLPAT
Chain of Serine/threonine-protein kinase 32C (Homo sapiens) (Q86UX6 whole entry): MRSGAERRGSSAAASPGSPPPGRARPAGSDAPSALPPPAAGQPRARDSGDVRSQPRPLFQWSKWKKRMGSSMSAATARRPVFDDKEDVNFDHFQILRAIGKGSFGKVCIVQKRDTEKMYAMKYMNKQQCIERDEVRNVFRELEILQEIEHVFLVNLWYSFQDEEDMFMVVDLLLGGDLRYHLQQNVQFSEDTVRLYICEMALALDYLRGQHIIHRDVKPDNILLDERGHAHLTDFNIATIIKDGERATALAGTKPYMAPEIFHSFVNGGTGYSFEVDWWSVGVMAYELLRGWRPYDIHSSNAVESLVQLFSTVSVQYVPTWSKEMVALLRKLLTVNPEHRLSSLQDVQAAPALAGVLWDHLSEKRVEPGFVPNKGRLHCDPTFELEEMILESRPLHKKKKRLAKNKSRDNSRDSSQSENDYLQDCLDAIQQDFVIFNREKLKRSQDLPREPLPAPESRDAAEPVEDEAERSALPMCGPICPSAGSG
Chain of Tyrosine-protein kinase BTK (Q06187 whole entry): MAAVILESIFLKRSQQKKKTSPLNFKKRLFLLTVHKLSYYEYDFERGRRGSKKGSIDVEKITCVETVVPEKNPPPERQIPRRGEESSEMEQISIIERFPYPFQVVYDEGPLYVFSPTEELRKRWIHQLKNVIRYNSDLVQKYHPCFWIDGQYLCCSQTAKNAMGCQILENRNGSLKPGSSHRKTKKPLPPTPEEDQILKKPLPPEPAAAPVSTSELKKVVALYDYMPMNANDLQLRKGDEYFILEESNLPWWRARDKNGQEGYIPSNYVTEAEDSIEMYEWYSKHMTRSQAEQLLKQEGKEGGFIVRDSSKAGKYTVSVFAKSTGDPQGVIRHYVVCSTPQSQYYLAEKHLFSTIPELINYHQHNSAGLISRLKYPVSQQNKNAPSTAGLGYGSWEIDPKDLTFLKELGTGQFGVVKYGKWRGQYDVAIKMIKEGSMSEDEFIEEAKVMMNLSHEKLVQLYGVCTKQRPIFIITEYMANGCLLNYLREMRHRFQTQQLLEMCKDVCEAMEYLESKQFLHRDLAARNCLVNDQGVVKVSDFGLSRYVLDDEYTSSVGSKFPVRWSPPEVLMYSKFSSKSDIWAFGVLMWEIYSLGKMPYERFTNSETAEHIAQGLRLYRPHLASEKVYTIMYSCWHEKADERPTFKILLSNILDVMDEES

C=CC(=O)Nc1ccc(C(=O)Nc2[nH]nc3c2CN(C(=O)N[C@H](CN(C)C)c2ccccc2)C3(C)C)cc1
% of engagement [1]: 5.7%

C=CC(=O)Nc1cc(-n2c(=O)ccc3cnc4ccc(-c5ccc(NS(C)(=O)=O)cc5)cc4c32)ccc1C
% of control [2]: 0.7%

Cc1cc([C@@H](C)Nc2ccccc2C(=O)O)c2nc(N3CCOCC3)cc(=O)n2c1 [AZD-6482]
% of control [3]: 86%
% of control [4]: 100%

CN(C)C(=O)Cn1cc(-c2ccc(-c3cncc4ccccc34)cc2)cn1
IC50 [5]: 531 nM

COc1cc(Nc2nc(C)cc(-c3cnn4nc(OC)ccc34)n2)cc(C(F)(F)F)c1
% of control [6]: 77%
% of control [7]: 87%

CCc1cccc(CC)c1NC(=O)c1nn(C)c2c1CCc1cnc(Nc3ccc(C(=O)NC4CCN(C)CC4)cc3OC(F)(F)F)nc1-2
IC50 [8]: > 10000 nM

C=CC(=O)Nc1cccc(C(=O)Nc2ccc(Nc3cc(-c4[nH]c(SC)nc4C)ccn3)cc2)c1
% of control ([9]; at 1 µM): 80%
% of control ([9]; at 5 µM): 52%
% of control ([10]; at 1 µM): 86%
% of control ([10]; at 5 µM): 81%

O[C@H]1CC[C@H](Nc2ncc3nc(Nc4c(F)cc(F)cc4F)n([C@H]4CCOC4)c3n2)CC1
% of control [11]: 100%

CC[C@@H]1[C@H](F)C(=O)N[C@@H]1COc1nccc2cc(C(N)=O)c(OC)cc12 [ZIMLOVISERTIB]
% of inhibition ([12]; at 0.01 µM): 8.2%
% of inhibition ([12]; at 0.04 µM): 15.5%
% of inhibition ([12]; at 0.2 µM): 0.7%
% of inhibition ([12]; at 1 µM): 5.8%
% of inhibition ([12]; at 5 µM): 12.1%
% of inhibition [13]: 17.9%
% of inhibition [14]: 6.43%
